Reference: patent US20200297015A1, “TRYPTOPHAN DERIVATIVES AS SWEETENERS” (CHROMOCELL CORPORATION, priority 2017, published 2020)

Assays:
[1] = test system: sweetness intensity (expert tasters); test: Reference scaling of sweetness intensity against sucrose references by expert tasters; type: in vivo, human; conditions: for Sweetness Intensity (avg): @ 1000 ppm, ranked against sucrose references (5%, 7.5%, 10%), n>5
Description: (§1) Preparation of Samples for Taste Tests: • Control Sample: 250 ppm, 500 ppm and 1000 ppm of D-Tryptophan • Variant Sample: 250 ppm, 500 ppm and 1000 ppm of Compound 5 Samples for the taste test were prepared by dissolving, both the control and variant samples, directly in water at the desired test concentrations.
In another test, expert tasters (n>5) also tasted Compound 5 and Control Samples to a set of sucrose references (5%, 7.5%, 10%) and ranked the Test and Control samples for sweetness intensity compared to sucrose references. At the same concentration, Compound 5 achieves higher (close to 2 fold) potency compared to Control compound.

[2] = Solubility: concentrated stock by conversion to sodium salt form; type: physicochemical; conditions: for concentrated stock compared to the free base form: sodium salt form vs free base form; for concentrated solution prepared: sodium salt form, with 5.5% by weight sodium hydroxide in de-ionized water, vortex and sonication 30-120 s
Text: Compounds 5 and 8 have been prepared at an increased concentration for commercial applications by converting them into their respective sodium salt forms. The process of converting to a salt form was obtained by dissolving the Compounds in water and adding a set quantity of sodium hydroxide or potassium hydroxide solution. A concentrated solution of 30% by weight of Compound 5 and 8 has been prepared by this method. This has been achieved by combining 30%, by weight, of Compound 5 or Compound 8 with 5.5%, by weight, of sodium hydroxide in de-ionized water. The mixture is subjected to intermittent vortex and sonication for a duration of 30-120 s. This process achieves a 300 times concentrated stock compared to the free base form of Compound 5 and 8, thereby enabling delivery of an increased concentration of the compounds in a model beverage/matrix. The sodium/potassium salt can increase solubility by changing neutral zwitterion to more hydrophilic negative charged anion.

[3] = test system: sweetness intensity in humans; test: Discriminative sensory evaluation of sweetness intensity, two-alternative forced choice sip and spit (2AFC) in water; type: in vivo, human
Description: The test compounds were evaluated for sweetness intensity in a aqueous solution in humans using a two-alternative forced choice “sip and spit” method (2AFC).
Preparation of Samples for Sensory Taste Tests: • Control Sample: Sucrose (various levels) • Variant Sample: Compound 1, 5 and 8
The control samples for the discrimination taste test were prepared by dissolving the sucrose directly in water at the indicated test concentrations Variant sample containing Compound 1 was prepared by dissolving Compound i directly in water at the desired concentration. Variant sample containing Compound 5 and 8 were prepared by dissolving the respective sodium salts of the compounds directly in water (refer to Example 4).
The 2AFC test used for compound evaluation was a double blinded and randomized test where taste panelists (n≥12) evaluate a pair of sweetened solutions at a time—one sample is sweetened with sucrose (i.e. control) while the other sample is sweetened with the test compound (i.e. variant). Panelists were instructed not to eat or drink (except water) for at least 1 h before the test. During the test, panelists were instructed to sip each sample, swirl it around their mouth and then expectorate. After tasting each sample in the pair, panelists were instructed to record the sample that is “sweeter” in taste. Panelists cleansed their palates by rinsing with water, eating a cracker and waiting for an interval of about 5 minutes. All samples were tasted at ambient temperatures. Data were analyzed using binomial probabilities.

[4] = test system: perception of sweet taste in humans; test: Descriptive Analysis (DA) sensory evaluation by trained panel, aqueous matrix; type: in vivo, human; conditions: for Bitter @ 18 sec / Bitter @ 1 min / Bitter @ 1 min 30 s / Bitter @2 min / Bitter @3 min / Sweet @ 18 sec / Sweet @ 1 min / Sweet @ 1 min 30 s / Sweet @ 2 min: intensity on 15 cm scale; for Bitter @ 18 sec / Bitter @ 1 min / Bitter @ 1 min 30 s / Bitter @2 min / Bitter @3 min / Sweet @ 18 sec / Sweet @ 1 min / Sweet @ 1 min 30 s / Sweet @ 2 min / Sweet AT: in water, 500 ppm Rebaudioside M (control), 1500 ppm Compound 5 (variant), n≥12; for Sweet AT: sweet appearance time
Description: The effect of the test compound on the perception of sweet taste in an aqueous matrix was evaluated using a descriptive analysis methodology with a group of trained panelists, as follows.
Preparation of Samples for Sensory Taste Tests: • Control Sample: 500 ppm Rebaudioside M • Variant Sample: 1500 ppm Compound 5 Samples for the descriptive analysis taste test were prepared by dissolving, both the control and variant samples, directly in water at the desired test concentrations.
The taste test panelists used in Example I were selected using a sensory acuity screening program and then trained in descriptive analysis taste testing. Candidate panelists were recruited, with prescreening and personal interviews, and were assessed for their ability to detect, recognize and differentiate basic taste attributes or mixtures thereof as part of a standardized acuity test. These candidate panelists were also assessed for their innate ability to identify flavors, and to rank on intensity scales. Other senses such as smell and vision were also included as part of the assessment. Candidates also were screened for their ability to use the language to describe and articulate ideas.
The method was performed as a double blinded, randomized test, where trained Descriptive Analysis taste panelists (n≥12) profiled the maximum intensity perceived at 18 seconds, of the control sample and the variant sample for the following 3 attributes; sweet, bitter and sweet appearance time. In addition to the maximum intensity, the panelists continued to assess sweet and bitter intensity (at 1 min, 1.5 min, 2 min, and 3 min), to generate a discontinuous time scale Intensity profile (TSI) of sweet and bitter percepts to gain an understanding of the taste profile of the control and variant samples. Each panelist scored sweetness intensity on a 15 cm scale, with the control and variant sample being determined to be iso-sweet by ANOVA at 18 seconds.

[5] = test system: sweetness intensity (expert tasters); test: Sweetness potency comparison vs D-Tryptophan, paired comparison by expert tasters; type: in vivo, human; conditions: in water, n>5
Description: The sweetness potency of the test compound was compared D-Tryptophan to understand potency differences between the test compound and non-methylated variants of D-tryptophan.
as §1
Expert tasters (n>5) tasted the control and test samples in a blinded experiment and assessed sweetness intensity (at the same concentration) via paired comparison. Each taster evaluated a pair of sweetened solutions at a time—one sample is sweetened with Control compound (i.e. control) while the other sample is sweetened with the test compound (i.e. variant). After tasting each sample in the pair, tasters were instructed to record the sample that is “sweeter” in taste. All samples were tasted at ambient temperatures.

[6] = test system: sweet taste; conditions: Optimising Sweet Taste in Foods, 2006; cited from earlier work

Compound | Sweetness Intensity (avg) [1] [% Sucrose equivalent] | concentrated stock compared to the free base form [2] [times] | concentrated solution prepared [2] [% by weight] | Bitter @ 18 sec [4] | Bitter @ 1 min [4] | Bitter @ 1 min 30 s [4] | Bitter @2 min [4] | Bitter @3 min [4] | Sweet @ 18 sec [4] | Sweet @ 1 min [4] | Sweet @ 1 min 30 s [4] | Sweet @ 2 min [4] | Sweet AT [4] | further results
N[C@H](Cc1c[nH]c2ccccc12)C(=O)O [Control, D-Tryptophan, reference compound] | 5.83 | – | – | – | – | – | – | – | – | – | – | – | – | –
Cc1[nH]c2ccccc2c1C[C@@H](N)C(=O)O [Compound 8, (R)-2-amino-3-(2-methyl-1H-indol-3-yl)propanoic acid] | – | 300 | 30 | – | – | – | – | – | – | – | – | – | – | Number picking Variant ([3]; Compound 8 @ 3000 ppm (sodium salt dissolved in water) vs 8% Sucrose, Total Number 20): 11
Cc1ccc2[nH]cc(C[C@@H](N)C(=O)O)c2c1 [Compound 5, (R)-2-amino-3-(5-methyl-1H-indol-3-yl)propanoic acid] | 9.25 | 300 | 30 | 2.2 | 1.2 | 0.5 | 0.1 | 0.1 | 10.8 | 6.5 | 4.6 | 3 | 4.8 | lingering effects, sweet and bitter, as compared to the Rebaudioside M sample ([4]; by ANOVA, at multiple time points, 1500 ppm Compound 5 vs 500 ppm Rebaudioside M): significantly less; % picking Test as “sweeter” ([5]; Compound 5 @ 250 ppm vs Control (D-Tryptophan) @ 250 ppm): 100%; % picking Test as “sweeter” ([5]; Compound 5 @ 500 ppm vs Control (D-Tryptophan) @ 500 ppm): 100%; % picking Test as “sweeter” ([5]; Compound 5 @ 1000 ppm vs Control (D-Tryptophan) @ 1000 ppm): 100%; potency compared to Control compound ([1]; at the same concentration, Control = D-Tryptophan): ~2 fold; Number picking Variant ([3]; Compound 5 @ 2000 ppm (sodium salt dissolved in water) vs 12% Sucrose, Total Number 38): 26
C=C1C[C@@]23CC[C@H]4[C@@](C)(CCC[C@@]4(C)C(=O)O[C@@H]4O[C@H](CO)[C@@H](O)[C@H](O[C@@H]5O[C@H](CO)[C@@H](O)[C@H](O)[C@H]5O)[C@H]4O[C@@H]4O[C@H](CO)[C@@H](O)[C@H](O)[C@H]4O)[C@@H]2CC[C@]1(O[C@@H]1O[C@H](CO)[C@@H](O)[C@H](O[C@@H]2O[C@H](CO)[C@@H](O)[C@H](O)[C@H]2O)[C@H]1O[C@@H]1O[C@H](CO)[C@@H](O)[C@H](O)[C@H]1O)C3 [Rebaudioside M, reference compound] | – | – | – | 3.3 | 2.2 | 1.4 | 0.7 | 0.3 | 10.7 | 7.2 | 5.3 | 3.6 | 5.9 | –
N[C@H](Cc1c[nH]c2cc(Cl)ccc12)C(=O)O [6-chloro-D-tryptophan] | – | – | – | – | – | – | – | – | – | – | – | – | – | sweeter than sucrose [6]: 1000 times
Cc1cccc2[nH]cc(CC(N)C(=O)O)c12 (centres unmarked) [Compound 1, 2-amino-3-(4-methyl-1H-indol-3-yl)propanoic acid] | – | – | – | – | – | – | – | – | – | – | – | – | – | Number picking Variant ([3]; Compound 1 @ 1000 ppm vs 10% Sucrose, in water, Total Number 38): 25
